This note sets out measurements from patent US20240174659A1, “COMPOUNDS AND METHODS FOR YAP/TEAD MODULATION AND INDICATIONS THEREFOR” (Opna Bio SA, priority 2021, published 2024).

The subject of this assay is TEAD-dependent transcription. The experiment in a line: Inhibitor activity against TEAD-dependent transcription in a cell-based reporter assay (MSTO-211H+12XGTIIC luciferase). Particulars: Homo sapiens; MSTO-211H+12XGTIIC cells, 24 hours incubation, luciferase luminescence normalized to cell viability fluorescence, geometric mean; read-out: MSTO-211H GMean IC50 (uM) Cell Assay Reporter Cell Variant: TEAD. Summed up: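 MSTO-211H mesothelioma cells stably carrying a 12xGTIIC TEAD-response-element luciferase reporter, treated with serial compound dilutions for 24 h at 37 °C. Luminescence normalized to CellTiter-Fluor viability signal; % inhibition versus DMSO and 20 μM K-975 controls, IC50 by nonlinear regression.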
(In general: In a reporter assay the amount or activity of a reporter protein is the signal.)

One may read the IC50 as the point on the concentration scale where inhibition reaches its midpoint. As to `C=CC(=O)N1CCc2ccc(C(F)c3ccc(C(F)(F)F)nc3)cc2C1` (centres unmarked) [P-0105, 1-(7-(fluoro(6-(trifluoromethyl)pyridin-3-yl)methyl)-3,4-dihydroisoquinolin-2(1H)-yl)prop-2-en-1-one], the IC50 was in the range of 0.5 to 20 µM.

Take `C=CC(=O)N1CCc2ccc(C(F)(F)c3ccc(C(F)(F)F)nc3)cc2C1` [P-0106, 1-(7-(difluoro(6-(trifluoromethyl)pyridin-3-yl)methyl)-3,4-dihydroisoquinolin-2(1H)-yl)prop-2-en-1-one]: the IC50 is 0.001 to 0.5 µM. Take `C=CC(=O)N1CCc2ccc(OCC3CC(F)(F)C3)cc2C1` [P-0107, 1-(7-((3,3-difluorocyclobutyl)methoxy)-3,4-dihydroisoquinolin-2(1H)-yl)prop-2-en-1-one]: the IC50 was 0.001 to 0.5 µM. For `C=CC(=O)N1CCc2ccc(OCC34CC5CC(CC(C5)C3)C4)cc2C1` [P-0108, 1-(7-(((3r,5r,7r)-adamantan-1-yl)methoxy)-3,4-dihydroisoquinolin-2(1H)-yl)prop-2-en-1-one], the IC50 was in the range of 0.001 to 0.5 µM.

As for `C=CC(=O)N1CCc2ccc(Oc3ccc(C4(C)CC4)cc3)cc2C1` [P-0109, 1-(7-(4-(1-methylcyclopropyl)phenoxy)-3,4-dihydroisoquinolin-2(1H)-yl)prop-2-en-1-one], the IC50 lay within 0.001 to 0.5 µM. For `C=CC(=O)N1CCc2ccc(OCC34CCC(CC3)C4)cc2C1` [P-0110, 1-(7-(bicyclo[2.2.1]heptan-1-ylmethoxy)-3,4-dihydroisoquinolin-2(1H)-yl)prop-2-en-1-one], the IC50 was 0.001 to 0.5 µM. Take `C=CC(=O)N1CCc2ccc(OCC3CC4C(C3)C4(F)F)cc2C1` (centres unmarked) [P-0111, 1-(7-((6,6-difluorobicyclo[3.1.0]hexan-3-yl)methoxy)-3,4-dihydroisoquinolin-2(1H)-yl)prop-2-en-1-one]: the IC50 lay within 0.001 to 0.5 µM. For the molecule `C=CC(=O)N1Cc2cc(Oc3ccc(C(F)(F)F)cc3)ccc2C[C@H]1C(=O)OC` [P-0112, methyl (S)-2-acryloyl-7-(4-(trifluoromethyl)phenoxy)-1,2,3,4-tetrahydroisoquinoline-3-carboxylate], the IC50 was 0.001 to 0.5 µM. As for `C=CC(=O)N1CCc2c(F)cc(Oc3ccc(C(F)(F)F)cc3)cc2C1` [P-0113, 1-(5-fluoro-7-(4-(trifluoromethyl)phenoxy)-3,4-dihydroisoquinolin-2(1H)-yl)prop-2-en-1-one], the figure is 0.001 to 0.5 µM; as for `C=CS(=O)(=O)N1CCc2ccc(Oc3ccc(C(F)(F)F)cc3)cc2C1` [P-0114, 7-(4-(trifluoromethyl)phenoxy)-2-(vinylsulfonyl)-1,2,3,4-tetrahydroisoquinoline], 0.5 to 20 µM; as for `C=CC(=O)N1CCc2ccc(Oc3ccc(C#N)cc3)cc2C1` [P-0115, 4-((2-acryloyl-1,2,3,4-tetrahydroisoquinolin-7-yl)oxy)benzonitrile], 0.001 to 0.5 µM. For `CN(C)C/C=C/C(=O)N1CCc2ccc(Oc3ccc(C(F)(F)F)cc3)cc2C1` [P-0116, (E)-4-(dimethylamino)-1-(7-(4-(trifluoromethyl)phenoxy)-3,4-dihydroisoquinolin-2(1H)-yl)but-2-en-1-one], the IC50 lay in the range of 0.5 to 20 µM. As for `O=C(/C=C/CN1CCC1)N1CCc2ccc(Oc3ccc(C(F)(F)F)cc3)cc2C1` [P-0117, (E)-4-(azetidin-1-yl)-1-(7-(4-(trifluoromethyl)phenoxy)-3,4-dihydroisoquinolin-2(1H)-yl)but-2-en-1-one], the figure is 0.5 to 20 µM; as for `O=C(/C=C/CN1CCCC1)N1CCc2ccc(Oc3ccc(C(F)(F)F)cc3)cc2C1` [P-0118, (E)-4-(pyrrolidin-1-yl)-1-(7-(4-(trifluoromethyl)phenoxy)-3,4-dihydroisoquinolin-2(1H)-yl)but-2-en-1-one], 0.5 to 20 µM; as for `O=C(/C=C/Cn1ccnc1)N1CCc2ccc(Oc3ccc(C(F)(F)F)cc3)cc2C1` [P-0119, (E)-4-(1H-imidazol-1-yl)-1-(7-(4-(trifluoromethyl)phenoxy)-3,4-dihydroisoquinolin-2(1H)-yl)but-2-en-1-one], 0.001 to 0.5 µM. Consider `O=C(/C=C/CN1CCOCC1)N1CCc2ccc(Oc3ccc(C(F)(F)F)cc3)cc2C1` [P-0120, (E)-4-morpholino-1-(7-(4-(trifluoromethyl)phenoxy)-3,4-dihydroisoquinolin-2(1H)-yl)but-2-en-1-one], for which the IC50 was 0.5 to 20 µM. For `CN1CCN(C/C=C/C(=O)N2CCc3ccc(Oc4ccc(C(F)(F)F)cc4)cc3C2)CC1` [P-0121, (E)-4-(4-methylpiperazin-1-yl)-1-(7-(4-(trifluoromethyl)phenoxy)-3,4-dihydroisoquinolin-2(1H)-yl)but-2-en-1-one], the IC50 lay within 0.5 to 20 µM. For `C=C(C)C(=O)N1CCc2ccc(Oc3ccc(C(F)(F)F)cc3)cc2C1` [P-0122, 2-methyl-1-(7-(4-(trifluoromethyl)phenoxy)-3,4-dihydroisoquinolin-2(1H)-yl)prop-2-en-1-one], the IC50 lay in the range of 0.5 to 20 µM.

Consider `C/C=C/C(=O)N1CCc2ccc(Oc3ccc(C(F)(F)F)cc3)cc2C1` [P-0123, (E)-1-(7-(4-(trifluoromethyl)phenoxy)-3,4-dihydroisoquinolin-2(1H)-yl)but-2-en-1-one], for which the IC50 was in the range of 0.001 to 0.5 µM. Take `C=C(Cl)C(=O)N1CCc2ccc(Oc3ccc(C(F)(F)F)cc3)cc2C1` [P-0124, 2-chloro-1-(7-(4-(trifluoromethyl)phenoxy)-3,4-dihydroisoquinolin-2(1H)-yl)prop-2-en-1-one]: the IC50 was 0.001 to 0.5 µM. To `O=C(/C=C/Cl)N1CCc2ccc(Oc3ccc(C(F)(F)F)cc3)cc2C1` [P-0125, (E)-3-chloro-1-(7-(4-(trifluoromethyl)phenoxy)-3,4-dihydroisoquinolin-2(1H)-yl)prop-2-en-1-one] belongs 0.001 to 0.5 µM; to `C=C(CO)C(=O)N1CCc2ccc(Oc3ccc(C(F)(F)F)cc3)cc2C1` [P-0126, 2-(hydroxymethyl)-1-(7-(4-(trifluoromethyl)phenoxy)-3,4-dihydroisoquinolin-2(1H)-yl)prop-2-en-1-one], 0.001 to 0.5 µM.

As to `C=C(C)S(=O)(=O)N1CCc2ccc(Oc3ccc(C(F)(F)F)cc3)cc2C1` [P-0127, 2-(prop-1-en-2-ylsulfonyl)-7-(4-(trifluoromethyl)phenoxy)-1,2,3,4-tetrahydroisoquinoline], the IC50 was 0.001 to 0.5 µM.

For `C=CC(=O)N1CCc2ccc(Oc3ccc(C(F)(F)F)cc3)cc2C1=O` [P-0128, 2-acryloyl-7-(4-(trifluoromethyl)phenoxy)-3,4-dihydroisoquinolin-1(2H)-one], the IC50 lay in the range of 0.001 to 0.5 µM. As to `C=CC(=O)N1CCc2ccc(OCc3ccc(F)c(F)c3)cc2C1` [P-0129, 1-(7-((3,4-difluorobenzyl)oxy)-3,4-dihydroisoquinolin-2(1H)-yl)prop-2-en-1-one], the IC50 is over 20 µM. On to `C=CC(=O)N1CCc2ccc(OCC3CCC(F)(F)C3)cc2C1` (centres unmarked) [P-0130, 1-(7-((3,3-difluorocyclopentyl)methoxy)-3,4-dihydroisoquinolin-2(1H)-yl)prop-2-en-1-one], for which the IC50 fell in the range of 0.001 to 0.5 µM.
